Experimental data reported in patent US10131659B2, “Iodonium analogs as inhibitors of NADPH oxidases and other flavin dehydrogenases; formulations thereof; and uses thereof” (priority 2014, dated 2018).
Where two headings read alike, the source gives them in different places.

Columns and labels:
[1] = test system: HT-29 human colon cancer cells; assay: Growth inhibition of HT-29 cells by MTT assay; format: cell-based; details: for IC50: read-out: IC50, HT-29 human colon cancer cell growth
Procedure: The compounds were analyzed for growth inhibition of HT-29 human colon cancer cells by MTT assay: 48 hr, drug exposures over several orders of concentration. The MTT assay was performed as described in Wu et al J. Immunology 190: 1859-1872, 2013.

[2] = test system: ROS production in HT-29 human colon cancer cells; assay: ROS production in HT-29 cells (chemiluminescence / DCF analytical cytometry); format: cell-based
[3] = target: T1, NOX1/A1/O1 (Homo sapiens, UniProt Q9Y5S8); assay: NOX1-dependent ROS production, luminescence assay for O2.- in HEK293 cells expressing the NOX1 complex; format: cell-based; details: for IC50 / IC50 toward NOX1: exposure for 30 min
T1 construct: expressed in transfected cells; host or cells: HEK293

[4] = target: T2, NOX2 (Homo sapiens, UniProt P04839); assay: NOX2-dependent ROS production, luminescence assay for O2.- in differentiated HL-60 cells; format: cell-based; details: exposure for 30 min
T2 construct: fully differentiated HL-60 cells expressing active NOX2; endogenous in cells; host or cells: differentiated HL-60

[5] = target: T3, NOX4 (Homo sapiens, UniProt Q9NPH5); assay: NOX4-dependent H2O2 production, Amplex Red assay in reconstituted HEK293 cells; format: cell-based; details: for IC50 / IC50 toward NOX4: exposure for 30 min
T3 construct: expressed in transfected cells; host or cells: HEK293
T3 sequence (Q9NPH5 1-578): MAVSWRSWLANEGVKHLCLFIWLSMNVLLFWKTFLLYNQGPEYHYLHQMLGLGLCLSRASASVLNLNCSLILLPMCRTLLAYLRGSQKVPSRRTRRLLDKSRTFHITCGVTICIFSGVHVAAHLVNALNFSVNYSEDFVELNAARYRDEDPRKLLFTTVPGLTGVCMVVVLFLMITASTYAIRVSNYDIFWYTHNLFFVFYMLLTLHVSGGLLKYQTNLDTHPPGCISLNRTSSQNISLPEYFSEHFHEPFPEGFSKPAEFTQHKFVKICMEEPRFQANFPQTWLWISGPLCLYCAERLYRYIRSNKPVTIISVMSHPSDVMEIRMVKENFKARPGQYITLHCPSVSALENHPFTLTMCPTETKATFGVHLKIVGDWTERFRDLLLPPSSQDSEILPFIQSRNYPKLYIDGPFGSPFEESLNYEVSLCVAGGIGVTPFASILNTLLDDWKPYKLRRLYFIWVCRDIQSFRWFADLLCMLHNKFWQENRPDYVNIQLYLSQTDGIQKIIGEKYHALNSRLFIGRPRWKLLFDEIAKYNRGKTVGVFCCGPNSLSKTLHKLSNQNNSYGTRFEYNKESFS
T3 sequence (P13498 2-195 partner limits assumed): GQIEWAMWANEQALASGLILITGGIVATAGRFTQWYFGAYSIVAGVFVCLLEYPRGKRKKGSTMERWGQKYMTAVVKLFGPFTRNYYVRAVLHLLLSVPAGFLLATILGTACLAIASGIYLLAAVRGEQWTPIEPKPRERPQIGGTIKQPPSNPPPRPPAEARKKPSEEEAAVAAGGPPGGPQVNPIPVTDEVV
Procedure: (§1) H2O2 was measured by Amplex Red assay to determine NOX4 or Duox2 activity in fully reconstituted HEK293 cells. The method conducted was similar to the approach disclosed in Jaquet et al in Brit J. Pharmacology 164: 507-520, 2011 using somewhat different cell models for the NOX isoforms and we studied Duox2 in our own cell model.

[6] = target: T4, NOX5 (Homo sapiens, UniProt Q96PH1); assay: NOX5-dependent ROS production, luminescence assay for O2.- in UACC257 melanoma cells; format: cell-based; details: exposure for 30 min
T4 sequence (Q96PH1 1-765): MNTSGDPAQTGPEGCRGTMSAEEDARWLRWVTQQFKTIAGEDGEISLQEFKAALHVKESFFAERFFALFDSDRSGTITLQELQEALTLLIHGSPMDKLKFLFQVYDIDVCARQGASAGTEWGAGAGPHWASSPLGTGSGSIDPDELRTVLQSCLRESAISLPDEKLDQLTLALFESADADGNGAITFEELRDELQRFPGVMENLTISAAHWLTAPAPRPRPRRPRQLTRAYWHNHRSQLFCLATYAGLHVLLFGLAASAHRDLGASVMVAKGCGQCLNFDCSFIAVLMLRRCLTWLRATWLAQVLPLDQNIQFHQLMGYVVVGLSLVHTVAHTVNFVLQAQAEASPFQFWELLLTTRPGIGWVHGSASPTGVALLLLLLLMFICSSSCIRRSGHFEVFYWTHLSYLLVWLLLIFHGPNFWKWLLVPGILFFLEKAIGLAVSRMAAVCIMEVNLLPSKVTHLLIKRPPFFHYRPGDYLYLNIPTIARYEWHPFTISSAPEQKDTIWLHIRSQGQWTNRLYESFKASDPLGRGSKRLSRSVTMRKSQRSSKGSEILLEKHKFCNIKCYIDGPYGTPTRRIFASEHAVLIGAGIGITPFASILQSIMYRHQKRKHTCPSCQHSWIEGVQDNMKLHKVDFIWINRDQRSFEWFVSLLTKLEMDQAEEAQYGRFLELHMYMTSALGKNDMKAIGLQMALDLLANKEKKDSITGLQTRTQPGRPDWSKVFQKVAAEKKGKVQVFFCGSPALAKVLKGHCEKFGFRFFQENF

[7] = target: DUOX2/A2 (Homo sapiens, UniProt Q9NRD8); assay: DUOX2-dependent H2O2 production, Amplex Red assay in reconstituted HEK293 cells; format: cell-based
Procedure: as §1

[8] = test system: HT-29 human colon cancer cells; assay: Clonogenic assay, HT-29 cells; format: cell-based
Procedure: Several iodonium analog compounds were analyzed for inhibition of HT-29 growth using a clonogenic assay performed as described in Doroshow et al Biochem. Biophys. Res. Commun. 135: 330-335, 1986.

[9] = test system: HT-29 human colon cancer cells; assay: HT-29 cell cycle progression; format: cell-based; details: for G1 (%) / G2 (%) / S phase (%): 24 hours
Procedure: Several iodonium analog compounds were analyzed for effect on HT-29 cell cycle progression.

[10] = test system: NOX1 mRNA expression; assay: NOX1 expression in HT-29 cells by quantitative RT-PCR; format: cell-based; details: HT-29 human colon cancer cells
[11] = test system: NOX1, NOX2, NOX4, NOX5, and DUOX2; assay: Screening for NADPH oxidase isoform specificity in cellular models (all isoforms); format: cell-based, human
Procedure: as §1, with “To evaluate compound specificity, a luminescence assay for O2.^− was used with HEK293 cells expressing all components of the NOX1 complex; fully differentiated HL-60 cells expressing active NOX2; and UACC257 melanoma cells that exclusively express active NOX5. H2O2” for “H2O2”

[12] = 3-5 independent experiments, read-out: IC50 ± SE, NOX1/A1/O1 HEK 293
[13] = 3-5 independent experiments, read-out: IC50 ± SE, NOX2 HL-60
[14] = 3-5 independent experiments, read-out: IC50 ± SE, NOX4 HEK293
[15] = 3-5 independent experiments, read-out: IC50 ± SE, NOX5 UACC-257
[16] = 3-5 independent experiments, read-out: IC50 ± SE, DUOX2/A2 HEK 293
[17] = Homo sapiens, HT-29, 2 h, read-out: IC50 (±SE) clonogenic survival, 2 hrs drug exposure, 2 hrs exposure
[18] = Homo sapiens, HT-29, 6 h, read-out: IC50 (±SE) clonogenic survival, 6 hrs drug exposure, 6 hrs exposure
[19] = Homo sapiens, HT-29, 240 h, read-out: IC50 clonogenic survival, 10 days drug exposure, 10 days exposure

DUOX2/A2, sequence (Q9NRD8 26-1548): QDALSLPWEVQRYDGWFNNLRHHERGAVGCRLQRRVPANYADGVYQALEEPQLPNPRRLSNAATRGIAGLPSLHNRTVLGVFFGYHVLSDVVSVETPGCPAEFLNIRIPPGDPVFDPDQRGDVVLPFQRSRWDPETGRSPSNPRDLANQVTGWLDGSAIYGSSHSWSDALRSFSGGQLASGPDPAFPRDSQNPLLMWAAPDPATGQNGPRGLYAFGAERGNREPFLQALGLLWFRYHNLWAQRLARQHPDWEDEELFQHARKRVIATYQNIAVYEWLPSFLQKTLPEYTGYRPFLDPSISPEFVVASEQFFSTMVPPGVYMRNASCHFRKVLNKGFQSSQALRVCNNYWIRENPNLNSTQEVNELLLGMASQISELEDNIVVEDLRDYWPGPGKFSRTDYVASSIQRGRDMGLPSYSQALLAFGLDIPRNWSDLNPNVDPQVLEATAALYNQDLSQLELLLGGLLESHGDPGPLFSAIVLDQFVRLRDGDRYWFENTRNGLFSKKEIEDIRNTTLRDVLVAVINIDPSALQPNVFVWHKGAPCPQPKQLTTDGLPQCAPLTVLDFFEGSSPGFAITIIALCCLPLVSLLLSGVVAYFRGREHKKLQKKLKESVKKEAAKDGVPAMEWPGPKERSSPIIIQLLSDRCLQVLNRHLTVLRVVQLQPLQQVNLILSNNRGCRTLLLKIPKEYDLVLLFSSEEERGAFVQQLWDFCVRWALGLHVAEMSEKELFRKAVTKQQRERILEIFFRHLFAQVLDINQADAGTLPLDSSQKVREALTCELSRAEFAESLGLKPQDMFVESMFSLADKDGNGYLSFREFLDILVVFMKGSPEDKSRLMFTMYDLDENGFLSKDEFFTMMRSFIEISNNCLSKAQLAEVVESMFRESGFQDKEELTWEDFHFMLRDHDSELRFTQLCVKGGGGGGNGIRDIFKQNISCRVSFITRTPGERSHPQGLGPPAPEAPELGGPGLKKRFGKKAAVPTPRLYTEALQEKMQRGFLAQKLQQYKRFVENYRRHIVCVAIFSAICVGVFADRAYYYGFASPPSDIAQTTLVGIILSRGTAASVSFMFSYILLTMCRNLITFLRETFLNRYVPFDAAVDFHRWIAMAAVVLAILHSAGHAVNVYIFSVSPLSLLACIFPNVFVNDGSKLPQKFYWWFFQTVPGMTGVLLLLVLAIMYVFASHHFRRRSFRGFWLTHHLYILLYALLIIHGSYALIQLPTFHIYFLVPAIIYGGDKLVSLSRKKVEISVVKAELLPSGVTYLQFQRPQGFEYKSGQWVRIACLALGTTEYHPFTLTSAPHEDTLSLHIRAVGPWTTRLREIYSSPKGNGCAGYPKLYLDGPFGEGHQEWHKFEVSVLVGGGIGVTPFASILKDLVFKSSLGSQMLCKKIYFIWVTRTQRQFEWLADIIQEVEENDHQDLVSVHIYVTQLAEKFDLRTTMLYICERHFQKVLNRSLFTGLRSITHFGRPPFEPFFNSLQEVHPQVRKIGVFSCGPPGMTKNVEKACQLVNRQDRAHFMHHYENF
DUOX2/A2, sequence (Q1HG44 whole entry partner): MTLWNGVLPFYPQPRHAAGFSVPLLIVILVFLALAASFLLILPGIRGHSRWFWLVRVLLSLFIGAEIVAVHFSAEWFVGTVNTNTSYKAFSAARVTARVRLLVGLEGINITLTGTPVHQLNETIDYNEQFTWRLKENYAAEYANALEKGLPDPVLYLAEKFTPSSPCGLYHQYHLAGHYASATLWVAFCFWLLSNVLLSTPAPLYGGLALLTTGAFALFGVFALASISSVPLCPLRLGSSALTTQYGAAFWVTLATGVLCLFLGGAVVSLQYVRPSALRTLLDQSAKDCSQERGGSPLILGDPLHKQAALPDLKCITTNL

| Compound | IC50 ([1]; Homo sapiens, HT-29, 48 h) [nM] | IC50 [3, 12] [nM] | IC50 toward NOX1 [3] | IC50 [4, 13] [nM] | IC50 toward NOX2 [4] | IC50 [5, 14] [nM] | IC50 toward NOX4 [5] | IC50 [6, 15] [nM] | IC50 toward NOX5 [6] | IC50 [7, 16] [nM] | IC50 [8, 18] [nM] | further results |
| --- | --- | --- | --- | --- | --- | --- | --- | --- | --- | --- | --- | --- |
| Brc1ccc2c(c1)[I+]c1cc(Br)ccc1-2.[Br-] [Compound 16, Dibenziodolium, 3,7-dibromo-, bromide] | 50 | 70 ± 57 | low nM | 127 ± 20 | low nM | 161 ± 153 | low nM | 44 ± 21 | low nM | 4140 ± 1720 | 536 ± 635 | ROS production in HT-29 cells ([2]; treatment for 24 hr with 10 nM): significantly decreased; potency as inhibitor of NOX1 compared with DPI [3]: more potent; exposure required to inhibit growth / cell reproduction [8]: intermediate; IC50 [8, 17]: 1200 ± 1100 nM; IC50 [8, 19]: < 10 nM; G1 (%) ([9]; 250 nM): 64.5%; G2 (%) ([9]; 250 nM): 7.9%; S phase (%) ([9]; 250 nM): 28.1%; G1 (%) ([9]; 500 nM): 57.2%; G2 (%) ([9]; 500 nM): 6.5%; S phase (%) ([9]; 500 nM): 36.2% |
| CN(C)Cc1ccc2c(c1)[I+]c1cc(CN(C)C)ccc1-2.[I-] [Compound 24, Dibenziodolium, 3,7-bis[(dimethylamino)methyl]-, iodide] | 87 | 2520 ± 2410 |  | 4380 ± 999 |  | 35400 ± 42700 |  | 2090 ± 903 |  |  |  | inhibition of ROS production ([2]; HT-29 human colon cancer cells): no significant inhibition; inhibition of NOX1 expression [10]: no significant inhibition |
| [Cl-].c1csc([I+]c2cccs2)c1 [Compound 1, di-2-thienyliodonium chloride, reference compound] |  | 3410 ± 1600 |  | 1500 ± 1110 |  | 32300 ± 13800 |  | 3780 ± 2140 |  |  | 113000 ± 92300 | IC50 clonogenic survival, 2 hrs drug exposure (result in words) ([8]; 2 hrs exposure): No Inhibition |
| COC(=O)c1ccc2c(c1)[I+]c1ccccc1-2.Cc1ccc(S(=O)(=O)[O-])cc1 [Compound 21, Dibenz[b,d]iodolium, 3-(methoxycarbonyl)-, salt with 4-methyl-benzenesulfonic acid (1:1)] |  | 249 ± 116 | low nM | 71 ± 15 | low nM | 127 ± 110 | low nM | 55 ± 20 | low nM | 1990 ± 1690 |  | IC50 ([1]; 48 hr drug exposure): 148 nM; ROS production in HT-29 cells ([2]; treatment for 24 hr with 10 nM): significantly decreased; potency as inhibitor of NOX4 compared with DPI [5]: more potent; IC50 ([8]; read-out: IC50 (±SE) clonogenic survival, 2 hrs drug exposure, 2 hrs exposure): ~7000 nM; IC50 ([8]; read-out: IC50 (±SE) clonogenic survival, 6 hrs drug exposure, 6 hrs exposure): 1300 ± 300 nM |
| O=[N+]([O-])c1cccc2c1-c1c(cccc1[N+](=O)[O-])[I+]2.[Br-] [Compound 49, 1,9-dinitrodibenzo[b,d]iodolium bromide] |  |  | much higher |  | much higher |  | much higher |  | submicromolar |  |  | Growth inhibition of NOX1-containing colon cancer cells versus the other analogs ([1]; even at higher concentrations): much less; IC50 ([3]; IC50 ± SE, NOX1/A1/O1 HEK 293, 3-5 independent experiments): 1020 ± 361 nM; IC50 ([4]; IC50 ± SE, NOX2 HL-60, 3-5 independent experiments): 1470 ± 308 nM; IC50 ([5]; IC50 ± SE, NOX4 HEK293, 3-5 independent experiments): 5530 ± 2680 nM; IC50 ([6]; IC50 ± SE, NOX5 UACC-257, 3-5 independent experiments): 229 ± 123 nM; IC50 [7]: 773 ± 362 nM; inhibition of DUOX2, as worded in text [7]: submicromolar; potency for inhibition of DUOX2 compared with parent compound (DPI) [7]: at least a log more potent |
| O=[N+]([O-])c1ccc2c(c1)[I+]c1cc([N+](=O)[O-])ccc1-2.[Br-] [Compound 15, Dibenziodolium, 3,7-dinitro-, bromide] | 202 | 357 ± 268 | low nM | 310 ± 53 | low nM | 139 ± 143 | low nM | 208 ± 129 | low nM | 225 ± 24 | 116 ± 108 | ROS production in HT-29 cells ([2]; treatment for 24 hr with 100 nM): significantly decreased; potency for inhibition of DUOX2 compared with parent compound (DPI) [7]: at least a log more potent; cytotoxic or cytostatic character [8]: cytotoxic; exposure required to inhibit growth / cell reproduction [8]: only a short exposure at nM concentrations; IC50 [8, 17]: 180 ± 157 nM; IC50 [8, 19]: < 10 nM; effect on cell cycle progression [9]: major block in cell cycle progression in S and G2 phases; G1 (%) ([9]; 250 nM): 23.9%; G2 (%) ([9]; 250 nM): 47.4%; S phase (%) ([9]; 250 nM): 28.7%; G1 (%) ([9]; 500 nM): 16.6%; G2 (%) ([9]; 500 nM): 25.2%; S phase (%) ([9]; 500 nM): 58.2% |
| O=S(=O)([O-])C(F)(F)F.c1csc([I+]c2cccs2)c1 [Compound 3, di-2-thienyliodonium triflate] |  | 2220 ± 1210 |  | 1490 ± 646 |  | 29700 ± 41500 |  | 1200 ± 1120 |  |  |  | IC50 clonogenic survival, 2 hrs drug exposure (result in words) ([8]; 2 hrs exposure): No Inhibition; IC50 ([8]; Homo sapiens, HT-29, read-out: IC50 (±SE) clonogenic survival, 6 hrs drug exposure, 6 hrs exposure): 91200 ± 58800 nM; potency compared with parent molecule (DTI) [11]: more potent than its parent molecule |
